Where “and” joins values, the source holds several entries; their conditions need not be identical. Equal values may be shown once. One block for each molecule: values may come before it.
Tests used:
Type in all cases: biochemical
[1] = DPPH· scavenging; conditions: mean ± SD, n = 3;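 also: colourimetric DPPH radical scavenging in 96-well plates, absorbance read-out, percent inhibition relative to ethanol control absorbance, IC50 derived graphically from dose-inhibition curves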
[2] = ABTS·+ decolourisation capacity; conditions: mean ± SD, n = 3
Procedure: Fast colourimetric methods were slightly modified for the in vitro assessment of DPPH· scavenging ([19]), ABTS·+ decolourisation capacity ([20]), and total antioxidant capacity of FRAP ([21]). The stock solutions of derivatisation reagents were diluted as follows before measurement: DPPH was diluted with absolute ethanol until the absorbance was 0.8 ± 0.05 at λ = 517 nm. ABTS working solution was prepared with phosphate buffer (0.2 M, pH 7.4) to display absorbance of 0.8 ± 0.05 at λ = 729 nm, based on a previous study ([22]). The FRAP solution was prepared according to the instructions of the FRAP kit. Absorbances were measured using an automatic microplate reader (Molecular Group Ltd., USA), and all analyses were performed using 96-well plates. All measurements were performed in triplicate, and Trolox was used as a positive control.
For ABTS·+ decolourisation capacity, 100 μl of ABTS working solution was mixed with 200 μl of sample solution, and the absorbance was recorded after 10 min at 729 nm. Phosphate buffer (0.2 M, pH 7.4) was used as a negative control.
DPPH· and ABTS·+ radical scavenging activities of the tested sample were both calculated using the following formula:
% inhibition = (A control − A sample)/A control × 100
Where A control and A sample represent the absorbance of the control and test samples, respectively. The IC50 was calculated graphically from the dose-inhibition curves.

[3] = FRAP total antioxidant capacity; conditions: lower part of sheet (compound series);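 also: colourimetric FRAP kit assay read as absorbance in 96-well plates, values as mM FeSO4 via standard curve, EC1 being sample concentration matching 1.0 mmol/L FeSO4, Trolox positive control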
[4] = biological target: T1, COX-2 (Homo sapiens, UniProt P35354); test: Anti-COX-2 assay (COX-2 Inhibitor Screening Kit)
T1 construct: purchased Beyotime S0168
T1 sequence (P35354 18-604): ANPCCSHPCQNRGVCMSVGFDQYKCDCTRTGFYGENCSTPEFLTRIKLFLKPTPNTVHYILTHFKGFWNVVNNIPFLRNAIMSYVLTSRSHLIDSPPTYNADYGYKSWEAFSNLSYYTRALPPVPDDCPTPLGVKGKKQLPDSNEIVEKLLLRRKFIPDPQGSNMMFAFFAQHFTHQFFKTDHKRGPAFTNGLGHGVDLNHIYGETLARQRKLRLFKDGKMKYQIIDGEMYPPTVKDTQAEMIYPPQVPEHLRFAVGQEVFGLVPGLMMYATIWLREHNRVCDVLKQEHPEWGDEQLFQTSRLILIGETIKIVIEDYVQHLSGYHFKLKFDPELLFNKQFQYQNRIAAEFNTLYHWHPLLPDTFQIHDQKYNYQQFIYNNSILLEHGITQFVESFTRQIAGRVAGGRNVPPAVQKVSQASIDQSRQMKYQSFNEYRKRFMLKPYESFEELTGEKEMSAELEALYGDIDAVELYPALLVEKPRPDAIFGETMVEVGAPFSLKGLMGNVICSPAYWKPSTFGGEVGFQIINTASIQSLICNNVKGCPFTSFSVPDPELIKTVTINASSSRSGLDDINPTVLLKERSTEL

[5] = Fluorescent AGEs formation in a BSA-fructose/glucose system
Procedure: Glycated protein was prepared in vitro by incubating BSA in the presence of D-glucose (GLC) and D-fructose (FRC). The DOF extract and specific standards were dissolved in DMSO:water (1:4). […] The assay was performed in triplicate, and AG was used as a positive control. The percentage inhibition of fluorescent AGE formation was calculated using the following equation: […] Where IF sample is fluorescence intensity in the presence of samples and BSA, IF sample control is fluorescence intensity in the presence of samples without BSA, IF control is fluorescence intensity without samples, and IF blank control is fluorescence intensity without samples and BSA.

IC50 [1]: > 5000 µM
IC50 [2]: 80.36 ± 0.77 µM
COX-2 inhibition (in words) [4]: no inhibitory effects
IC50 ([5]; mean ± SD, n = 3, read-out: BSA-glycation IC50): 273 ± 4.7 µM
Structure (SMILES): O=c1cc(-c2ccc(O)cc2)oc2c(C3OCC(O)C(O)C3O)c(O)c(C3OCC(O)C(O)C3O)c(O)c12 [compound 26, Apigenin-6-C-α-L-arabinoside-8-C-β-D-xyloside]
FRAP EC1 [3]: >5000 µM
inhibition of fluorescent AGEs formation (BSA-抗糖化), single replicate ([5]; 15.625 µM, individual replicate, listed as T10, 15.625 µM): -0.15% and 0.19% and 0.09%
inhibition of fluorescent AGEs formation (BSA-抗糖化), 平均 (mean) ([5]; 15.625 µM, mean of 3 replicates): 0.045%
inhibition of fluorescent AGEs formation (BSA-抗糖化), single replicate ([5]; 31.25 µM, individual replicate, listed as T10, 31.25 µM): 6.49% and 8.31% and 6.26%
inhibition of fluorescent AGEs formation (BSA-抗糖化), 平均 (mean) ([5]; 31.25 µM, mean of 3 replicates): 7.02%
inhibition of fluorescent AGEs formation (BSA-抗糖化), single replicate ([5]; 62.5 µM, individual replicate, listed as T10, 62.5 µM): 15.98% and 16.92% and 15.72%
inhibition of fluorescent AGEs formation (BSA-抗糖化), 平均 (mean) ([5]; 62.5 µM, mean of 3 replicates): 16.21%
inhibition of fluorescent AGEs formation (BSA-抗糖化), single replicate ([5]; 125 µM, individual replicate, listed as T10, 125 µM): 27.64% and 28.36% and 29.90%
inhibition of fluorescent AGEs formation (BSA-抗糖化), 平均 (mean) ([5]; 125 µM, mean of 3 replicates): 28.63%
inhibition of fluorescent AGEs formation (BSA-抗糖化), single replicate ([5]; 250 µM, individual replicate, listed as T10, 250 µM): 48.76% and 48.06% and 47.15%
inhibition of fluorescent AGEs formation (BSA-抗糖化), 平均 (mean) ([5]; 250 µM, mean of 3 replicates): 47.99%
inhibition of fluorescent AGEs formation (BSA-抗糖化), single replicate ([5]; 500 µM, individual replicate, listed as T10, 500 µM): 67.27% and 67.99% and 65.66%
inhibition of fluorescent AGEs formation (BSA-抗糖化), 平均 (mean) ([5]; 500 µM, mean of 3 replicates): 66.98%
inhibition of fluorescent AGEs formation (BSA-抗糖化), single replicate ([5]; 1000 µM, individual replicate, listed as T10, 1000 µM): 82.36% and 81.32% and 81.69%
inhibition of fluorescent AGEs formation (BSA-抗糖化), 平均 (mean) ([5]; 1000 µM, mean of 3 replicates): 81.79%
inhibition of fluorescent AGEs formation (BSA-抗糖化), single replicate ([5]; 2000 µM, individual replicate, listed as T10, 2000 µM): 90.52% and 90.97% and 89.78%
inhibition of fluorescent AGEs formation (BSA-抗糖化), 平均 (mean) ([5]; 2000 µM, mean of 3 replicates): 90.42%
inhibition of fluorescent AGEs formation (BSA-抗糖化), single replicate ([5]; 4000 µM (series head 'T9 4000µM', 2-fold dilutions), individual replicate, listed as T10): 95.10% and 95.64% and 95.09%
inhibition of fluorescent AGEs formation (BSA-抗糖化), 平均 (mean) ([5]; 4000 µM, mean of 3 replicates): 95.27%

IC50 ([5]; BSA-抗糖化, mean of 3 replicate IC50, read-out: IC50µM, mean): 288 µM
IC50 ([5]; BSA-抗糖化, per replicate curve, read-out: IC50µM, single replicate): 306 µM and 289 µM and 270 µM
Structure (SMILES): O=C(O)CC(=O)OC[C@H]1O[C@@H](Oc2c(-c3ccc(O)c(O)c3)oc3cc(O)cc(O)c3c2=O)[C@H](O)[C@@H](O)[C@@H]1O
inhibition of fluorescent AGEs formation (BSA-抗糖化), single replicate ([5]; 15.625 µM): 10.51% and 15.35% and 23.11%
inhibition of fluorescent AGEs formation (BSA-抗糖化), single replicate ([5]; 31.25 µM): 5.08% and 5.86% and 10.67%
inhibition of fluorescent AGEs formation (BSA-抗糖化), 平均 (mean) ([5]; 31.25 µM, mean of 3): 7.20%
inhibition of fluorescent AGEs formation (BSA-抗糖化), single replicate ([5]; 62.5 µM): 17.13% and 15.89% and 16.80%
inhibition of fluorescent AGEs formation (BSA-抗糖化), 平均 (mean) ([5]; 62.5 µM, mean of 3): 16.61%
inhibition of fluorescent AGEs formation (BSA-抗糖化), single replicate ([5]; 125 µM): 26.98% and 29.78% and 30.07%
inhibition of fluorescent AGEs formation (BSA-抗糖化), 平均 (mean) ([5]; 125 µM, mean of 3): 28.94%
inhibition of fluorescent AGEs formation (BSA-抗糖化), single replicate ([5]; 250 µM): 45.50% and 47.09% and 47.76%
inhibition of fluorescent AGEs formation (BSA-抗糖化), 平均 (mean) ([5]; 250 µM, mean of 3): 46.78%
inhibition of fluorescent AGEs formation (BSA-抗糖化), single replicate ([5]; 500 µM): 61.62% and 62.32% and 63.30%
inhibition of fluorescent AGEs formation (BSA-抗糖化), 平均 (mean) ([5]; 500 µM, mean of 3): 62.41%
inhibition of fluorescent AGEs formation (BSA-抗糖化), single replicate ([5]; 1000 µM): 77.56% and 77.94% and 77.85%
inhibition of fluorescent AGEs formation (BSA-抗糖化), 平均 (mean) ([5]; 1000 µM, mean of 3): 77.78%
inhibition of fluorescent AGEs formation (BSA-抗糖化), single replicate ([5]; 2000 µM): 88.53% and 88.63% and 88.83%
inhibition of fluorescent AGEs formation (BSA-抗糖化), 平均 (mean) ([5]; 2000 µM, mean of 3): 88.66%
inhibition of fluorescent AGEs formation (BSA-抗糖化), single replicate ([5]; 4000 µM): 94.35% and 94.74% and 94.79%
inhibition of fluorescent AGEs formation (BSA-抗糖化), 平均 (mean) ([5]; 4000 µM, mean of 3): 94.62%

From PMC10064984, “Anti-cyclooxygenase, anti-glycation, and anti-skin aging effect of Dendrobium officinale flowers’ aqueous extract and its phytochemical validation in aging” (Frontiers in Immunology, 2023)
